Several values for one entry are separate records, joined by “and”; a condition that tells them apart may be missing. Equal entries are not always repeated. Inconclusive results and toxic doses are left out.
System: L1210 leukemia ip in BDF1 mice, survival T/C
Test: NCI In Vivo Anticancer Drug Screen. Data for tumor model L1210 Leukemia (intraperitoneal) in B6D2F1 (BDF1) mice
Details: endpoint: mean survival time, higher = longer survival
Summary of the method: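 Read-out is survival time, reported as the treated-group measurement over the vehicle-control measurement.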

[1] = dose: 100.0 mg/kg/injection, schedule: Q04DX003 (ip), vehicle: saline with Tween-80
[2] = dose: 200.0 mg/kg/injection, schedule: Q04DX003 (ip), vehicle: saline with Tween-80
[3] = dose: 400.0 mg/kg/injection, schedule: Q04DX003 (ip), vehicle: saline with Tween-80
[4] = dose: 50.0 mg/kg/injection, schedule: Q01DX009 (ip), vehicle: saline with Tween-80

CC(C)Sc1ncnc2nc[nH]c12
T/C (dose: 2.5 mg/kg/injection, schedule: Q01DX009 (sc), vehicle: steriod suspending solution): 97 % of control
T/C (dose: 5.0 mg/kg/injection, schedule: Q01DX009 (sc), vehicle: steriod suspending solution): 100 % of control
T/C (dose: 10.0 mg/kg/injection, schedule: Q01DX009 (sc), vehicle: steriod suspending solution): 96 % of control
T/C (dose: 18.0 mg/kg/injection, schedule: Q01DX009 (ip), vehicle: saline with Tween-80): 102 % of control
T/C (dose: 27.0 mg/kg/injection, schedule: Q01DX009 (ip), vehicle: saline with Tween-80): 104 % of control
T/C (dose: 40.0 mg/kg/injection, schedule: Q01DX009 (ip), vehicle: saline with Tween-80): 110 % of control
T/C (dose: 60.0 mg/kg/injection, schedule: Q01DX009 (ip), vehicle: saline with Tween-80): 109 % of control
T/C (dose: 75.0 mg/kg/injection, schedule: Q01DX001 (sc), vehicle: steriod suspending solution): 103 % of control
T/C (dose: 75.0 mg/kg/injection, schedule: Q01DX009 (sc), vehicle: steriod suspending solution): 166 % of control
T/C (dose: 150.0 mg/kg/injection, schedule: Q01DX009 (sc), vehicle: steriod suspending solution): 160 % of control

Fc1ccc2c(c1)CC(CBr)O2 (configuration not stated)
T/C (dose: 50.0 mg/kg/injection, schedule: Q01DX001 (ip), vehicle: saline): 100 % of control
T/C (dose: 100.0 mg/kg/injection, schedule: Q01DX001 (ip), vehicle: saline): 105 % of control
T/C (dose: 200.0 mg/kg/injection, schedule: Q01DX001 (ip), vehicle: saline): 103 % of control
T/C (dose: 400.0 mg/kg/injection, schedule: Q01DX001 (ip), vehicle: saline): 103 % of control

C/C=C/C(=O)Nc1cccc(OC(=O)NC(C)C)c1
T/C [1]: 95 % of control
T/C [2]: 93 % of control
T/C [3]: 87 % of control

O=C(N/N=C/c1ccco1)c1ccccc1
T/C [4]: 94 % of control and 103 % of control
T/C (dose: 100.0 mg/kg/injection, schedule: Q01DX001 (ip), vehicle: saline with Tween-80): 106 % of control
T/C (dose: 100.0 mg/kg/injection, schedule: Q01DX009 (ip), vehicle: saline with Tween-80): 100 % of control and 103 % of control
T/C (dose: 100.0 mg/kg/injection, schedule: Q04DX002 (ip), vehicle: saline with Tween-80): 96 % of control
T/C [1]: 98 % of control
T/C (dose: 200.0 mg/kg/injection, schedule: Q01DX001 (ip), vehicle: saline with Tween-80): 101 % of control
T/C (dose: 200.0 mg/kg/injection, schedule: Q01DX009 (ip), vehicle: saline with Tween-80): 103 % of control and 87 % of control
T/C (dose: 200.0 mg/kg/injection, schedule: Q04DX002 (ip), vehicle: saline with Tween-80): 97 % of control
T/C [2]: 105 % of control
T/C (dose: 400.0 mg/kg/injection, schedule: Q01DX001 (ip), vehicle: saline with Tween-80): 114 % of control
T/C (dose: 400.0 mg/kg/injection, schedule: Q04DX002 (ip), vehicle: saline with Tween-80): 110 % of control
T/C [3]: 103 % of control

NC(=O)C(N)CCCN=C(N)N (configuration not stated)
T/C (dose: 37.5 mg/kg/injection, schedule: Q01DX001 (ip), vehicle: Klucel (hydroxypropylcellulose) (HPC)): 103 % of control
T/C (dose: 75.0 mg/kg/injection, schedule: Q01DX001 (ip), vehicle: Klucel (hydroxypropylcellulose) (HPC)): 116 % of control
T/C (dose: 150.0 mg/kg/injection, schedule: Q01DX001 (ip), vehicle: Klucel (hydroxypropylcellulose) (HPC)): 100 % of control

NC(=O)NCCNC(N)=O
T/C (dose: 100.0 mg/kg/injection, schedule: Q01DX009 (ip), vehicle: saline): 108 % of control
T/C (dose: 100.0 mg/kg/injection, schedule: Q04DX003 (ip), vehicle: saline): 97 % of control
T/C (dose: 200.0 mg/kg/injection, schedule: Q01DX009 (ip), vehicle: saline): 110 % of control
T/C (dose: 200.0 mg/kg/injection, schedule: Q04DX003 (ip), vehicle: saline): 105 % of control
T/C (dose: 400.0 mg/kg/injection, schedule: Q01DX009 (ip), vehicle: saline): 108 % of control
T/C (dose: 400.0 mg/kg/injection, schedule: Q04DX003 (ip), vehicle: saline): 103 % of control

Cc1ccc(C(=O)CCl)c(C)c1
T/C (dose: 12.5 mg/kg/injection, schedule: Q01DX009 (ip), vehicle: saline with Tween-80): 95 % of control
T/C (dose: 25.0 mg/kg/injection, schedule: Q01DX009 (ip), vehicle: saline with Tween-80): 100 % of control
T/C [4]: 103 % of control

Nc1cc(=O)[nH]c(S(=O)O)n1
T/C (dose: 50.0 mg/kg/injection, schedule: Q01DX009 (ip), vehicle: Klucel (hydroxypropylcellulose) (HPC)): 100 % of control
T/C (dose: 100.0 mg/kg/injection, schedule: Q01DX009 (ip), vehicle: Klucel (hydroxypropylcellulose) (HPC)): 98 % of control
T/C (dose: 200.0 mg/kg/injection, schedule: Q01DX009 (ip), vehicle: Klucel (hydroxypropylcellulose) (HPC)): 98 % of control

C[N+]1(CCC(c2ccccc2)c2ccccc2)CCCCC1
T/C (dose: 12.5 mg/kg/injection, schedule: Q01DX009 (ip), vehicle: saline): 97 % of control
T/C (dose: 25.0 mg/kg/injection, schedule: Q01DX009 (ip), vehicle: saline): 96 % of control
T/C (dose: 50.0 mg/kg/injection, schedule: Q01DX009 (ip), vehicle: saline): 96 % of control
